≈ marks a conversion by molar mass, not a printed value.
Experiments:
[1] = Thermodynamic solubility of the compound at pH 6; assay type: physicochemical; conditions: buffer, read-out: Therm_solubility
[2] = target: T1, Mas-related G-protein coupled receptor member X2 (Homo sapiens, UniProt Q96LB1); experiment: Agonist activity at MRGPX2 (unknown origin)
T1 sequence (Q96LB1 whole entry): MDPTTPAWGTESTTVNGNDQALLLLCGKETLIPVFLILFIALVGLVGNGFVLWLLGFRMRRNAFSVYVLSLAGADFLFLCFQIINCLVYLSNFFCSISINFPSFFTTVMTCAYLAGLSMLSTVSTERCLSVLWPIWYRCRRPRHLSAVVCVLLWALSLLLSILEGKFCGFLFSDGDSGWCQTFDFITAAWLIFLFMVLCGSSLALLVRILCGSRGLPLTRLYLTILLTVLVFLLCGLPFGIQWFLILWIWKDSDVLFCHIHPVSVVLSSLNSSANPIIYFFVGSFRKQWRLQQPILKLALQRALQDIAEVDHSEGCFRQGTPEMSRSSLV

[3] = AUC (infinity) in cynomolgus monkey at 0.5 mg/kg, sc; assay type: ADME, organism-based, Macaca fascicularis; parameters: dose 0.5 mg/kg, route subcutaneous, time infinity; conditions: in vivo
[4] = AUC (infinity) in rat at 1 mg/kg, sc; assay type: ADME, organism-based; parameters: dose 1 mg/kg, route subcutaneous, time infinity; conditions: in vivo
[5] = Half life in cynomolgus monkey at 0.013 mg/kg, sc; assay type: ADME, organism-based, Macaca fascicularis; conditions: in vivo
[6] = Half life in rat hepatocytes; assay type: ADME, cell-based, Hepatocyte
[7] = Oral bioavailability in cynomolgus monkey at 0.013 mg/kg; assay type: ADME, organism-based, Macaca fascicularis; conditions: in vivo
[8] = Volume of distribution at steady state in dog at 0.5 mg/kg, iv; assay type: ADME, organism-based, Canis lupus familiaris; conditions: in vivo, read-out: Vdss
[9] = Genotoxicity in Salmonella typhimurium TA1535 by mini AMES test; assay type: toxicity; conditions: salmonella enterica subsp. enterica serovar typhimurium
[10] = Half life in dog at 0.5 mg/kg, iv; assay type: ADME, organism-based, Canis lupus familiaris; conditions: in vivo
[11] = Stability of the compound in pH 8 solution at 50 degC assessed as loss of purity after 1 week; assay type: physicochemical; conditions: read-out: Drug degradation
[12] = Protein binding in cynomolgus monkey plasma by high-throughput dialysis method; assay type: ADME, cell-free, Macaca fascicularis; conditions: read-out: PPB (converted)
Canis lupus familiaris = species on record: Canis lupus familiaris; experiment: Antagonist activity at dog CGRP receptor
Cytochrome P450 2C9 = Cytochrome P450 2C9 (Homo sapiens, UniProt P11712); experiment: Inhibition of CYP2C9 (unknown origin); assay type: ADME
[13] = Oral bioavailability in cynomolgus monkey at 0.5 mg/kg; assay type: ADME, organism-based, Macaca fascicularis; conditions: in vivo
Cytochrome P450 2C8 = target: T2, Cytochrome P450 2C8 (Homo sapiens, UniProt P10632); experiment: Inhibition of CYP2C8 (unknown origin); assay type: ADME
T2 sequence (P10632 whole entry): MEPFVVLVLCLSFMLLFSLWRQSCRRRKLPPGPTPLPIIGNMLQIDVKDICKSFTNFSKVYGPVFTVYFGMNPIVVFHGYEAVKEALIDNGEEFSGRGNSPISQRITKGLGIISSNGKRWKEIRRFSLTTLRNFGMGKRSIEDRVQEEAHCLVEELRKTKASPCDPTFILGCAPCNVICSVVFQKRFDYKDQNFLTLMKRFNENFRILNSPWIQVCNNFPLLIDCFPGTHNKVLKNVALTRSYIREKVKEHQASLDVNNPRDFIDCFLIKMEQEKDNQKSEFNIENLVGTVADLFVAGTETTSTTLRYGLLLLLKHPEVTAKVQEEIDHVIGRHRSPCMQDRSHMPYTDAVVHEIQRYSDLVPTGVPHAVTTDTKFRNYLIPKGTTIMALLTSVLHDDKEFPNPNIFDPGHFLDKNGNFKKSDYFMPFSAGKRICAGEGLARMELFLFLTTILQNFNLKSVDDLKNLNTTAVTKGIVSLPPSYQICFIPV

Homo sapiens = species on record: Homo sapiens; experiment: Selectivity ratio of antagonist activity at adrenomedullin-1 receptor (unknown origin) to antagonist activity at human CGRP receptor in human SK-N-MC cells; assay type: cell-based
[14] = Half life in cynomolgus monkey hepatocytes; assay type: ADME, cell-based, Macaca fascicularis, Hepatocyte
[15] = Efflux ratio of apparent permeability in MDCK cells; assay type: ADME, cell-based, Canis lupus familiaris; conditions: dog
[16] = AUC (infinity) in cynomolgus monkey at 0.013 mg/kg, sc; assay type: ADME, organism-based, Macaca fascicularis; parameters: dose 0.013 mg/kg, route subcutaneous, time infinity; conditions: in vivo
[17] = Tmax in rat at 1 mg/kg, sc; assay type: ADME, organism-based; conditions: in vivo
[18] = Protein binding in dog plasma by high-throughput dialysis method; assay type: ADME, cell-free, Canis lupus familiaris; conditions: read-out: PPB (converted)
[19] = Stability of the compound in pH 5.5 solution at 50 degC assessed as loss of purity after 1 week; assay type: physicochemical; conditions: read-out: Drug degradation
[20] = Volume of distribution at steady state in cynomolgus monkey at 0.5 mg/kg, iv; assay type: ADME, organism-based, Macaca fascicularis; conditions: in vivo, read-out: Vdss
[21] = Half life in rat at 2 mg/kg, iv; assay type: ADME, organism-based; conditions: in vivo
[22] = Toxicity in rat assessed as behavioral changes at 0.1 to 1 mg/kg/day, sc administered for 10 days; assay type: organism-based; conditions: in vivo, 240 h
PXR (NR1I2) = target: T3, PXR (NR1I2) (Homo sapiens, UniProt O75469); experiment: Transactivation of PXR (unknown origin) assessed as induction of CYP450 at 3 uM relative to control; assay type: ADME; conditions: read-out: FC
T3 sequence (O75469 whole entry): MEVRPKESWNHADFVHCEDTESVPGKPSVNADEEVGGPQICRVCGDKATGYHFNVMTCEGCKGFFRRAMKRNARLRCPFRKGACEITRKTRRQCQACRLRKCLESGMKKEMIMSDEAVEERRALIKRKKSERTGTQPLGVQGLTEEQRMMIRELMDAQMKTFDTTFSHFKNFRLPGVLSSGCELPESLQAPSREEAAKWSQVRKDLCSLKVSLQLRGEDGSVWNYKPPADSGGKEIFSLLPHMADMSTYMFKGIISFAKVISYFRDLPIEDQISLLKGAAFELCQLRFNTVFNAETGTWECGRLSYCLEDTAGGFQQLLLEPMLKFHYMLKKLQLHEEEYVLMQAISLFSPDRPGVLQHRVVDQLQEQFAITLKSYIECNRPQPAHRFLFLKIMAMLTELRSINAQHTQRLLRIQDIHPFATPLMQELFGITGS

Macaca fascicularis = species on record: Macaca fascicularis; experiment: Antagonist activity at cynomolgus monkey CGRP receptor
[23] = Thermodynamic solubility of the compound at pH 7.4; assay type: physicochemical; conditions: buffer, read-out: Therm_solubility
[24] = Tmax in cynomolgus monkey at 0.5 mg/kg, sc; assay type: ADME, organism-based, Macaca fascicularis; conditions: in vivo

Cytochrome P450 2C9, sequence (P11712 whole entry): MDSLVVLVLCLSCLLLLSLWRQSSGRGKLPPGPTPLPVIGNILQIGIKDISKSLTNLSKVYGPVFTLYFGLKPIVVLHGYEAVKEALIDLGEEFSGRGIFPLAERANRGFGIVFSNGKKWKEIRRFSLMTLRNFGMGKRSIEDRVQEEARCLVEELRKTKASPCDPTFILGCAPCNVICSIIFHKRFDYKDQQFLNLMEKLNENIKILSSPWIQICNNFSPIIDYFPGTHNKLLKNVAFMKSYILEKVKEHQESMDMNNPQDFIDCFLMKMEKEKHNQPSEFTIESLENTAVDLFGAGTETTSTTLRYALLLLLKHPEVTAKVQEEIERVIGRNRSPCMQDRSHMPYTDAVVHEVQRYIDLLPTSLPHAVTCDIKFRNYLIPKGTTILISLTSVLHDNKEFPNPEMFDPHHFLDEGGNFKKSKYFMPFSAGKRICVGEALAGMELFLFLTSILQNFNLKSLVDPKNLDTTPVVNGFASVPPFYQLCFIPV

## Cc1cc(C[C@@H](NC(=O)N2CCC3(CC2)OC(=O)Nc2ncccc23)C(=O)N[C@@H](CC2CCNCC2)C(=O)N2CCN(c3ccncc3)CC2)cc2cn[nH]c12 [HTL-0022562]
[1]
  solubility thermodynamic: 2920 µM (≈ 2230 µg/mL)
[2]
  EC50: 0.9 µM
[3]
  AUC(0-inf): 4210 ng·h/mL
[4]
  AUC(0-inf): 1280 ng·h/mL
[5]
  half-life: 3.5 h
[6]
  half-life: > 5 h
[7]
  bioavailability: 68%
[8]
  Vd: 0.3 L/kg
[9]
  Activity: Non-Toxic
[10]
  half-life: 1.2 h
[11]
  degraded at 168 h: 4.5%
[12]
  fraction unbound: 0.69
Canis lupus familiaris
  pKb: 7.2
Cytochrome P450 2C9
  IC50: > 50.1 µM
[13]
  bioavailability: 117%
Cytochrome P450 2C8
  IC50: > 50.1 µM
Homo sapiens
  Selectivity ratio: > 8000
[14]
  half-life: > 5 h
[15]
  efflux ratio: > 2.7
[16]
  AUC(0-inf): 81 ng·h/mL
[17]
  Tmax: 0.7 h
[18]
  fraction unbound: 0.77
[19]
  degraded at 168 h: 0.8%
[20]
  Vd: 0.4 L/kg
[21]
  half-life: 4.7 h
[22]
  Activity: Non-Toxic
PXR (NR1I2)
  fold induction at 3 µM: 2.3
Macaca fascicularis
  pKb: 10.5
[23]
  solubility thermodynamic: 2460 µM (≈ 1880 µg/mL)
[24]
  Tmax: 0.8 h

From ChEMBL document CHEMBL4610123, “Structure-Based Drug Discovery of N-((R)-3-(7-Methyl-1H-indazol-5-yl)-1-oxo-1-(((S)-1-oxo-3-(piperidin-4-yl)-1-(4-(pyridin-4-yl)piperazin-1-yl)propan-2-yl)amino)propan-2-yl)-2'-oxo-1',2'-dihydrospiro[piperidine-4,4'-pyrido[2,3-d][1,3]oxazine]-1-carboxamide (HTL22562): A Calcitonin Gene-Related …” (J Med Chem, 2020)
